Results as given in patent publication US9573913B2, “Cathepsin cysteine protease inhibitors” (Merck Sharp & Dohme Corp., priority 2013, dated 2017).

Assays:
human cathepsin F = molecular target: T1, human cathepsin F (Homo sapiens, UniProt Q9UBX1); assay: Cathepsin F assay (hCat F); format: biochemical; details: Z-Phe-Arg-AMC substrate, pH 5.5, 15 min preincubation; read-out: hCat F (IP (nM))
T1 sequence (Q9UBX1 271-484): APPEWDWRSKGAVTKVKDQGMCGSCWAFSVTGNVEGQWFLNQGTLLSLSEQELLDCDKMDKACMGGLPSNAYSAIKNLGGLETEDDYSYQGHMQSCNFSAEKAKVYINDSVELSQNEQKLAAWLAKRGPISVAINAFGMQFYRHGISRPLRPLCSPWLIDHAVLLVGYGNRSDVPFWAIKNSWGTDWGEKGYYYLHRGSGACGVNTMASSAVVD
Method in brief: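 AMC release from Z-Phe-Arg-AMC, added at 8 μM, was monitored fluorometrically (360/460 nm) for 20 min after 10 nM enzyme and compound had been preincubated 15 min at room temperature. Buffer: MES 50 mM pH 5.5, EDTA and DTT 2.5 mM each, 10% DMSO. Compound DMSO dilutions spanned 500–0.025 μM (3-fold). Dose-response fitting gave % inhibition.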

human cathepsin K = human cathepsin K (UniProt P43236); assay: Cathepsin K Assay (hrbCat K); format: biochemical; details: Z-Leu-Arg-AMC substrate, pH 5.5, 15 min preincubation; read-out: hrbCat K (IP (nM))
Method in brief: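 Human cathepsin K (0.4 nM) was preincubated 15 min at room temperature with compound in 50 mM MES pH 5.5, 2.5 mM EDTA, 2.5 mM DTT and 10% DMSO. Inhibition was fitted to a dose-response model.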

Structure (SMILES) | IC50 (human cathepsin F) | IC50 (human cathepsin K)
CS(=O)(=O)C1CN(c2ccc(-c3sc(-c4cccnc4)nc3[C@@H]3CCCC[C@H]3C(=O)NC3(C#N)CC3)cc2)C1 [Example 73, (1R,2R)-N-(1-cyanocyclopropyl)-2-(5-(4-(3-(methylsulfonyl)azetidin-1-yl)phenyl)-2-(pyridin-3-yl)thiazol-4-yl)cyclohexane-carboxamide] | 1200 nM | 2.2 nM
N#CC1(NC(=O)[C@@H]2CCCC[C@H]2c2nc(-c3cncc(F)c3)sc2-c2ccc(N3CCS(=O)(=O)C4(CC4)C3)cc2)CC1 [Example 74, (1R,2R)-N-(1-cyanocyclopropyl)-2-(5-(4-(4,4-dioxido-4-thia-7-azaspiro[2.5]octan-7-yl)phenyl)-2-(5-fluoropyridin-3-yl)thiazol-4-yl)cyclohexane-carboxamide] | 1370 nM | 1.9 nM
CS(=O)(=O)C1CN(c2ccc(-c3sc(-c4cncc(F)c4)nc3[C@@H]3CCCC[C@H]3C(=O)NC3(C#N)CC3)cc2)C1 [Example 75, (1R,2R)-N-(1-cyanocyclopropyl)-2-(2-(5-fluoropyridin-3-yl)-5-(4-(3-(methylsulfonyl)azetidin-1-yl)phenyl)thiazol-4-yl)cyclohexane-carboxamide] | 867 nM | 1.5 nM
N#CC1(NC(=O)[C@@H]2CCCC[C@H]2c2nc(-c3cncc(Cl)c3)sc2-c2ccc(N3CCS(=O)(=O)C4(CC4)C3)cc2)CC1 [Example 76, (1R,2R)-2-(2-(5-chloropyridin-3-yl)-5-(4-(4,4-dioxido-4-thia-7-azaspiro[2.5]octan-7-yl)phenyl)thiazol-4-yl)-N-(1-cyanocyclopropyl) cyclohexanecarbox-amide] | 1000 nM | 1.8 nM
N#CC1(NC(=O)[C@@H]2CCC(F)(F)C[C@H]2c2nc(-c3ccc(F)cc3)sc2-c2ccc(N3CCS(=O)(=O)CC3)cc2)CC1 [Example 78, (1R,2R)-N-(1-cyanocyclopropyl)-2-(5-(4-(1,1-dioxidothiomorpho-lino)phenyl)-2-(4-fluorophenyl)thiazol-4-yl)-4,4-difluorocyclohexane-carboxamide] | 3330 nM | 3.8 nM
N#Cc1ccccc1-c1nc([C@@H]2CCCC[C@H]2C(=O)NC2(C#N)CC2)c(-c2ccc(N3CCS(=O)(=O)CC3)cc2)s1 [Example 79, (1R,2R)-N-(1-cyanocyclopropyl)-2-(2-(2-cyanophenyl)-5-(4-(1,1-dioxidothiomorpho-lino)phenyl)thiazol-4-yl)cyclohexane-carboxamide] | 5750 nM | 9.3 nM
COc1cnc(-c2nc([C@@H]3CCCC[C@H]3C(=O)NC3(C#N)CC3)c(-c3ccc(N4CCS(=O)(=O)CC4)cc3)s2)nc1 [Example 81, (1R,2R)-N-(1-cyanocyclopropyl)-2-(5-(4-(1,1-dioxidothiomorpho-lino)phenyl)-2-(5-methoxypyrimidin-2-yl)thiazol-4-yl)cyclohexane-carboxamide] | ≥ 10000 nM | 48.4 nM
Cc1ccc(-c2nc([C@@H]3CCCC[C@H]3C(=O)NC3(C#N)CC3)c(-c3ccc(N4CCS(=O)(=O)CC4)cc3)s2)nn1 [Example 83, (1R,2R)-N-(1-cyanocyclopropyl)-2-(5-(4-(1,1-dioxidothiomorpho-lino)phenyl)-2-(6-methylpyridazin-3-yl)thiazol-4-yl)cyclohexane-carboxamide] | 1110 nM | 1.4 nM
N#Cc1ccc(-c2nc([C@@H]3CCCC[C@H]3C(=O)NC3(C#N)CC3)c(-c3ccc(N4CCS(=O)(=O)CC4)cc3)s2)cc1 [Example 84, (1R,2R)-N-(1-cyanocyclopropyl)-2-(2-(4-cyanophenyl)-5-(4-(1,1-dioxidothiomorpho-lino)phenyl)thiazol-4-yl)cyclohexane-carboxamide] | 1410 nM | 0.7 nM
CS(=O)(=O)C1CN(c2ccc(-c3sc(-c4cncc(Cl)c4)nc3[C@@H]3CCCC[C@H]3C(=O)NC3(C#N)CC3)cc2)C1 [Example 85, (1R,2R)-2-(2-(5-chloropyridin-3-yl)-5-(4-(3-(methylsulfonyl)azetidin-1-yl)phenyl)thiazol-4-yl)-N-(1-cyanocyclopropyl) cyclohexanecarbox-amide] | 1090 nM | 2.1 nM
N#Cc1cc(Cl)ccc1-c1nc([C@@H]2CCCC[C@H]2C(=O)NC2(C#N)CC2)c(-c2ccc(N3CCS(=O)(=O)CC3)cc2)s1 [Example 87, (1R,2R)-2-(2-(4-chloro-2-cyanophenyl)-5-(4-(1,1-dioxidothiomorpho-lino)phenyl)thiazol-4-yl)-N-(1-cyanocyclopropyl) cyclohexanecarbox-amide] | 7780 nM | 6.7 nM
N#CC1(NC(=O)[C@@H]2CCCC[C@H]2c2nc(N3CCCCC3)sc2-c2ccc(N3CCS(=O)(=O)CC3)cc2)CC1 [Example 89, (1R,2R)-N-(1-cyanocyclopropyl)-2-(5-(4-(1,1-dioxidothiomorpho-lino)phenyl)-2-(piperidin-1-yl)thiazol-4-yl)cyclohexane-carboxamide] | 1000 nM | 3 nM
Cc1nc(-c2nc([C@@H]3CCCC[C@H]3C(=O)NC3(C#N)CC3)c(-c3ccc(N4CCS(=O)(=O)CC4)cc3)s2)cs1 [Example 91, (1R,2R)-N-(1-cyanocyclopropyl)-2-(5-(4-(1,1-dioxidothiomorpho-lino)phenyl)-2′-methyl-[2,4′-bithiazol]-4-yl)cyclohexane-carboxamide] | 1110 nM | 3.3 nM
CC1(C)CC(c2nc([C@@H]3CCCC[C@H]3C(=O)NC3(C#N)CC3)c(-c3ccc(N4CCS(=O)(=O)CC4)cc3)s2)CC(C)(C)O1 [Example 93, (1R,2R)-N-(1-cyanocyclopropyl)-2-(5-(4-(1,1-dioxidothiomorpho-lino)phenyl)-2-(2,2,6,6-tetramethyltetrahydro-2H-pyran-4-yl)thiazol-4-yl)cyclohexane-carboxamide] | ≥ 10000 nM | 14.1 nM
N#CC1(NC(=O)[C@@H]2CCCC[C@H]2c2nc(-c3c(F)cccc3F)sc2-c2ccc(N3CCS(=O)(=O)CC3)cc2)CC1 [Example 94, (1R,2R)-N-(1-cyanocyclopropyl)-2-(2-(2,6-difluorophenyl)-5-(4-(1,1-dioxidothiomorpho-lino)phenyl)thiazol-4-yl)cyclohexane-carboxamide] | ≥ 10000 nM | 5.5 nM

Other lines, results leading:

IC50 (human cathepsin F) | IC50 (human cathepsin K) | Structure (SMILES)
1870 nM | 1.6 nM | Cc1ncc(-c2nc([C@@H]3CCCC[C@H]3C(=O)NC3(C#N)CC3)c(-c3ccc(N4CCS(=O)(=O)CC4)cc3)s2)cn1 [Example 77, (1R,2R)-N-(1-cyanocyclopropyl)-2-(5-(4-(1,1-dioxidothiomorpho-lino)phenyl)-2-(2-methylpyrimidin-5-yl)thiazol-4-yl)cyclohexane-carboxamide]
≥ 10000 nM | 31.6 nM | N#CC1(NC(=O)[C@@H]2CCCC[C@H]2c2nc(-c3ncc(F)cn3)sc2-c2ccc(N3CCS(=O)(=O)CC3)cc2)CC1 [Example 80, (1R,2R)-N-(1-cyanocyclopropyl)-2-(5-(4-(1,1-dioxidothiomorpho-lino)phenyl)-2-(5-fluoropyrimidin-2-yl)thiazol-4-yl)cyclohexane-carboxamide]
≥ 10000 nM | 46.4 nM | Cc1cnc(-c2nc([C@@H]3CCCC[C@H]3C(=O)NC3(C#N)CC3)c(-c3ccc(N4CCS(=O)(=O)CC4)cc3)s2)nc1 [Example 82, (1R,2R)-N-(1-cyanocyclopropyl)-2-(5-(4-(1,1-dioxidothiomorpho-lino)phenyl)-2-(5-methylpyrimidin-2-yl)thiazol-4-yl)cyclohexane-carboxamide]
3330 nM | 1.8 nM | COc1ccc(-c2nc([C@@H]3CCCC[C@H]3C(=O)NC3(C#N)CC3)c(-c3ccc(N4CCS(=O)(=O)CC4)cc3)s2)cn1 [Example 86, (1R,2R)-N-(1-cyanocyclopropyl)-2-(5-(4-(1,1-dioxidothiomorpho-lino)phenyl)-2-(6-methoxypyridin-3-yl)thiazol-4-yl)cyclohexane-carboxamide]
1400 nM | 1.5 nM | N#CC1(NC(=O)[C@@H]2CCCC[C@H]2c2nc(-c3cncc(C(F)(F)F)c3)sc2-c2ccc(N3CCS(=O)(=O)CC3)cc2)CC1 [Example 88, (1R,2R)-N-(1-cyanocyclopropyl)-2-(5-(4-(1,1-dioxidothiomorpho-lino)phenyl)-2-(5-(trifluoromethyl)pyridin-3-yl)thiazol-4-yl)cyclohexane-carboxamide]
1280 nM | 2.2 nM | N#CC1(NC(=O)[C@@H]2CCCC[C@H]2c2nc(-c3ccc(C(F)(F)F)cn3)sc2-c2ccc(N3CCS(=O)(=O)CC3)cc2)CC1 [Example 90, (1R,2R)-N-(1-cyanocyclopropyl)-2-(5-(4-(1,1-dioxidothiomorpho-lino)phenyl)-2-(5-(trifluoromethyl)pyridin-2-yl)thiazol-4-yl)cyclohexane-carboxamide]
3330 nM | 3 nM | CC(C)(C)c1ccc(-c2nc([C@@H]3CCCC[C@H]3C(=O)NC3(C#N)CC3)c(-c3ccc(N4CCS(=O)(=O)CC4)cc3)s2)cn1 [Example 92, (1R,2R)-2-(2-(6-(tert-butyl)pyridin-3-yl)-5-(4-(1,1-dioxidothiomorpho-lino)phenyl)thiazol-4-yl)-N-(1-cyanocyclopropyl) cyclohexanecarbox-amide]
